In general, IC50 refers to the concentration needed to halve the response being measured.

The subject of the assay is mutant Huntington (HTT) protein. Briefly: HTT Mutant HTRF iPSC assay (mHTT protein lowering). Format: cell-based. To be noted: human iPSC derived from a HTT patient with a poly-Q49 mutation.

Regarding `Cc1cn2nc(-c3cc(F)c4nc(NC(=O)[C@H]5[C@@H]6CN(C)C[C@@H]65)cn4c3)cc(C)c2n1` [Compound 262, (1R,5S,6r)-N-(6-(2,8-dimethylimidazo[1,2-b]pyridazin-6-yl)-8-fluoroimidazo[1,2-a]pyridin-2-yl)-3-methyl-3-azabicyclo[3.1.0]hexane-6-carboxamide], the IC50 was under 100 nM.
For the compound `Cc1cn2nc(-c3cc(F)c4nc(NC(=O)C5CN(C6CCC6)C5)cn4c3)cc(C)c2n1` [Compound 263, 1-cyclobutyl-N-(6-(2,8-dimethylimidazo[1,2-b]pyridazin-6-yl)-8-fluoroimidazo[1,2-a]pyridin-2-yl)azetidine-3-carboxamide], the IC50 was under 100 nM.
`Cc1cn2nc(-c3cc(F)c4nc(NC(=O)C5CN(C6CC6)C5)cn4c3)cc(C)c2n1` [Compound 265, 1-cyclopropyl-N-(6-(2,8-dimethylimidazo[1,2-b]pyridazin-6-yl)-8-fluoroimidazo[1,2-a]pyridin-2-yl)azetidine-3-carboxamide] displayed an IC50 of under 100 nM.
The compound `Cc1cn2nc(-c3cc(F)c4nc(NC(=O)C5CN(CCF)C5)cn4c3)cc(C)c2n1` [Compound 266, N-(6-(2,8-dimethylimidazo[1,2-b]pyridazin-6-yl)-8-fluoroimidazo[1,2-a]pyridin-2-yl)-1-(2-fluoroethyl)azetidine-3-carboxamide] came in with an IC50 of under 100 nM.
`Cc1cn2nc(-c3cc(F)c4nc(NC(=O)C5CN(CC(F)F)C5)cn4c3)cc(C)c2n1` [Compound 267, 1-(2,2-difluoroethyl)-N-(6-(2,8-dimethylimidazo[1,2-b]pyridazin-6-yl)-8-fluoroimidazo[1,2-a]pyridin-2-yl)azetidine-3-carboxamide] returned an IC50 of 100 to 1000 nM.
For `Cc1cn2nc(-c3cc(F)c4nc(NC(=O)C5CCNC6(CC6)C5)cn4c3)cc(C)c2n1` (centres unmarked) [Compound 268, N-(6-(2,8-dimethylimidazo[1,2-b]pyridazin-6-yl)-8-fluoroimidazo[1,2-a]pyridin-2-yl)-4-azaspiro[2.5]octane-7-carboxamide] the value was under 100 nM; for `Cc1cn2nc(-c3cc(F)c4nc(NC(=O)C5CCN(C)CC5)cn4c3)cc(C)c2n1` [Compound 269, N-(6-(2,8-dimethylimidazo[1,2-b]pyridazin-6-yl)-8-fluoroimidazo[1,2-a]pyridin-2-yl)-1-methylpiperidine-4-carboxamide], under 100 nM.
In the case of `Cc1cn2nc(-c3cc(F)c4nc(NC(=O)C5(F)CNC5)cn4c3)cc(C)c2n1` [Compound 270, N-(6-(2,8-dimethylimidazo[1,2-b]pyridazin-6-yl)-8-fluoroimidazo[1,2-a]pyridin-2-yl)-3-fluoroazetidine-3-carboxamide], the IC50 was under 100 nM.
Next, `Cc1cn2nc(-c3cc(F)c4nc(NC(=O)C5CCNC6CC65)cn4c3)cc(C)c2n1` (centres unmarked) [Compound 271, N-(6-(2,8-dimethylimidazo[1,2-b]pyridazin-6-yl)-8-fluoroimidazo[1,2-a]pyridin-2-yl)-2-azabicyclo[4.1.0] heptane-5-carboxamide]: under 100 nM; `Cc1cn2nc(-c3cc(F)c4nc(NC(=O)CC5CCCN5)cn4c3)cc(C)c2n1` (centres unmarked) [Compound 273, N-(6-(2,8-dimethylimidazo[1,2-b]pyridazin-6-yl)-8-fluoroimidazo[1,2-a]pyridin-2-yl)-2-(pyrrolidin-2-yl)acetamide]: under 100 nM; `Cc1cn2nc(-c3cc(F)c4nc(NC(=O)CC5CCCCN5)cn4c3)cc(C)c2n1` (centres unmarked) [Compound 274, N-(6-(2,8-dimethylimidazo[1,2-b]pyridazin-6-yl)-8-fluoroimidazo[1,2-a]pyridin-2-yl)-2-(piperidin-2-yl)acetamide]: under 100 nM.
For `Cc1cn2nc(-c3cc(F)c4nc(NC(=O)CN5CCCCC5)cn4c3)cc(C)c2n1` [Compound 275, N-(6-(2,8-dimethylimidazo[1,2-b]pyridazin-6-yl)-8-fluoroimidazo[1,2-a]pyridin-2-yl)-2-(piperidin-1-yl)acetamide] the value was under 100 nM; for `Cc1cn2nc(-c3cc(F)c4nc(NC(=O)C5CC6(CNC6)C5)cn4c3)cc(C)c2n1` [Compound 276], 100 to 1000 nM.
Take `Cc1cn2nc(-c3cc(F)c4nc(NC(=O)CC5CNC5)cn4c3)cc(C)c2n1` [Compound 281, 2-(azetidin-3-yl)-N-(6-(2,8-dimethylimidazo[1,2-b]pyridazin-6-yl)-8-fluoroimidazo[1,2-a]pyridin-2-yl)acetamide]: the IC50 was under 100 nM.
In turn, `Cc1cn2nc(-c3cc(F)c4nc(NC(=O)C5(C)CN(C6CC6)C5)cn4c3)cc(C)c2n1` [Compound 282, 1-cyclopropyl-N-(6-(2,8-dimethylimidazo[1,2-b]pyridazin-6-yl)-8-fluoroimidazo[1,2-a]pyridin-2-yl)-3-methylazetidine-3-carboxamide] came in with an IC50 of under 100 nM.
Consider `Cc1cn2nc(-c3cc(F)c4nc(NC(=O)CC5CCNCC5)cn4c3)cc(C)c2n1` [Compound 284, N-(6-(2,8-dimethylimidazo[1,2-b]pyridazin-6-yl)-8-fluoroimidazo[1,2-a]pyridin-2-yl)-2-(piperidin-4-yl)acetamide], for which the IC50 fell in the range of 100 to 1000 nM.
`Cc1cn2nc(-c3cc(F)c4nc(NC(=O)C5CN(C6CC6)C5(C)C)cn4c3)cc(C)c2n1` (centres unmarked) [Compound 285, 1-cyclopropyl-N-(6-(2,8-dimethylimidazo[1,2-b]pyridazin-6-yl)-8-fluoroimidazo[1,2-a]pyridin-2-yl)-2,2-dimethylazetidine-3-carboxamide] came in with an IC50 of 100 to 1000 nM.
In the case of `Cc1cn2nc(-c3cc(F)c4nc(NC(=O)[C@H]5C[C@H](N(C)C)C5)cn4c3)cc(C)c2n1` [Compound 288, (1r,3r)-3-(dimethylamino)-N-(6-(2,8-dimethylimidazo[1,2-b]pyridazin-6-yl)-8-fluoroimidazo[1,2-a]pyridin-2-yl)cyclobutane-1-carboxamide], the IC50 is under 100 nM.
For `Cc1cn2nc(-c3cc(F)c4nc(NC(=O)[C@H]5C[C@@H](N(C)C)C5)cn4c3)cc(C)c2n1` [Compound 289, (1s,3s)-3-(dimethylamino)-N-(6-(2,8-dimethylimidazo[1,2-b]pyridazin-6-yl)-8-fluoroimidazo[1,2-a]pyridin-2-yl)cyclobutane-1-carboxamide], the IC50 is under 100 nM.
The compound `Cc1cn2nc(-c3cc(F)c4nc(NC(=O)C5CN(C(C)C)C5)cn4c3)cc(C(F)F)c2n1` [Compound 290, N-[6-[8-(difluoromethyl)-2-methyl-imidazo[1,2-b]pyridazin-6-yl]-8-fluoro-imidazo[1,2-a]pyridin-2-yl]-1-isopropyl-azetidine-3-carboxamide] showed an IC50 of under 100 nM.
For `CC(C)N1CC(C(=O)Nc2cn3cc(-c4cc(F)c5nn(C)cc5c4)cc(F)c3n2)C1` [Compound 291, N-(8-fluoro-6-(7-fluoro-2-methyl-2H-indazol-5-yl)imidazo[1,2-a]pyridin-2-yl)-1-isopropylazetidine-3-carboxamide] the value was 100 to 1000 nM; for `Cc1cc(-c2cc(F)c3nc(NC(=O)C4CN(C(C)C)C4)cn3c2)nc2cn(C)nc12` [Compound 292, N-(6-(2,7-dimethyl-2H-pyrazolo[4,3-b]pyridin-5-yl)-8-fluoroimidazo[1,2-a]pyridin-2-yl)-1-isopropylazetidine-3-carboxamide], under 100 nM.
`Cc1cn2nc(-c3cc(F)c4nc(NC(=O)C5CNC5)cn4c3)cc(C)c2n1` [Compound 294, N-[6-(2,8-dimethylimidazo[1,2-b]pyridazin-6-yl)-8-fluoro-imidazo[1,2-a]pyridin-2-yl]azetidine-3-carboxamide] registered an IC50 of under 100 nM.
Consider `Cc1cn2nc(-c3cc(F)c4nc(NC(=O)C5CN(C(C)C)C5)cn4c3)cc2c(C)n1` [Compound 295, N-(6-(4,6-dimethylpyrazolo[1,5-a]pyrazin-2-yl)-8-fluoroimidazo[1,2-a]pyridin-2-yl)-1-isopropylazetidine-3-carboxamide], for which the IC50 is under 100 nM.
As for `COc1cc(-c2cc(F)c3nc(NC(=O)C4CN(C(C)C)C4)cn3c2)nn2nc(C)nc12` [Compound 296, N-(8-fluoro-6-(8-methoxy-2-methyl-[1,2,4]triazolo[1,5-b]pyridazin-6-yl)imidazo[1,2-a]pyridin-2-yl)-1-isopropylazetidine-3-carboxamide], the IC50 was under 100 nM.
Next, `Cc1cn2nc(-c3cc(F)c4nc(NC(=O)C5CCN(C)CC5)nn4c3)cc(C)c2n1` [Compound 317, N-(6-(2,8-dimethylimidazo[1,2-b]pyridazin-6-yl)-8-fluoro-[1,2,4]triazolo[1,5-a]pyridin-2-yl)-1-methylpiperidine-4-carboxamide]: 100 to 1000 nM; `Cc1cn2nc(-c3cc(F)c4nc(NC(=O)C5CC56CNC6)nn4c3)cc(C)c2n1` (centres unmarked) [Compound 318]: 1000 to 9000 nM; `Cc1cn2nc(-c3cc(F)c4nc(NC(=O)C5CNCC5(C)C)nn4c3)cc(C)c2n1` (centres unmarked) [Compound 319, N-(6-(2,8-dimethylimidazo[1,2-b]pyridazin-6-yl)-8-fluoro-[1,2,4]triazolo[1,5-a]pyridin-2-yl)-4,4-dimethylpyrrolidine-3-carboxamide]: 1000 to 9000 nM.
With `Cc1cn2nc(-c3cc(F)c4nc(NC(=O)C56CNC(C5)C6)nn4c3)cc(C)c2n1` [Compound 320, N-(6-(2,8-dimethylimidazo[1,2-b]pyridazin-6-yl)-8-fluoro-[1,2,4]triazolo[1,5-a]pyridin-2-yl)-2-azabicyclo[2.1.1]hexane-4-carboxamide], the IC50 lay in the range of 1000 to 9000 nM.
`Cc1cn2nc(-c3cc(F)c4nc(NC(=O)C5CCCCNC5)nn4c3)cc(C)c2n1` (centres unmarked) [Compound 321, N-(6-(2,8-dimethylimidazo[1,2-b]pyridazin-6-yl)-8-fluoro-[1,2,4]triazolo[1,5-a]pyridin-2-yl)azepane-3-carboxamide] showed an IC50 of 100 to 1000 nM.
Compound `Cc1cn2nc(-c3cc(F)c4nc(NC(=O)C5CCNC(C)C5)nn4c3)cc(C)c2n1` (centres unmarked) [Compound 322, N-(6-(2,8-dimethylimidazo[1,2-b]pyridazin-6-yl)-8-fluoro-[1,2,4]triazolo[1,5-a]pyridin-2-yl)-2-methylpiperidine-4-carboxamide] came in with an IC50 of 100 to 1000 nM.
As to `Cc1cn2nc(-c3cc(F)c4nc(NC(=O)C5CCNC56CC6)nn4c3)cc(C)c2n1` (centres unmarked) [Compound 323, N-(6-(2,8-dimethylimidazo[1,2-b]pyridazin-6-yl)-8-fluoro-[1,2,4]triazolo[1,5-a]pyridin-2-yl)-4-azaspiro[2.4]heptane-7-carboxamide], the IC50 was in the range of 100 to 1000 nM.
